According to US20120283316A1, “Delivery of Therapeutic Agents Using Oligonucleotide-Modified Nanoparticles As Carriers” (priority 2009, published 2012):
Like-named read-outs stand apart in the source and are kept apart here.

What was measured:
MCF7 cells = assay: MTT assay (cytotoxicity) in MCF7 cells; type: cell-based; conditions: Homo sapiens
Method: (§1) MCF7, SKOV-3 and MES-SA/Dx5 cells were purchased from American Type Culture Collection (ATCC, Manassas, Va., USA). […] MCF7 cells were cultured in Eagle's Minimum Essential Medium (EMEM) supplemented with 10% fetal bovine serum (FBS) and 0.01 mg/ml bovine insulin. SKOV-3 and MES-SA/Dx5 cells were cultured using McCoy's 5A modified media supplemented with 10% FBS. All experiments were performed in the aforementioned cell-specific media in a 5% CO2 incubator at 37° C.
(§2) Following 24 hours of growth, media was replaced with 200 μL of corresponding sample solutions, which were freshly prepared at varying concentrations in complete cell culture media. Cells in media containing 10% FBS with nothing added were used as controls. After 12 hours or 48 hours of treatment, cells were rinsed and cultured with fresh medium containing 0.5 mg/mL of MTT for an additional 3 hours. Following careful aspiration of MTT solution and media after MTT incubation, 200 μL of MTT solubilization solution was added to each well and thoroughly mixed. The optical density at 570 nm was measured using a Safire microplate reader (Tecan Systems, Inc., San Jose, Calif.). Background absorbance at 690 nm was subtracted. Values were expressed as a percentage of the control (incubated with media alone). All conditions were done in sextuplicate in two independent experiments for each cell line.

[1] = test system: SKOV-3 ovarian cancer cells; assay: MTT assay (cytotoxicity) in SKOV-3 cells; type: cell-based; conditions: Homo sapiens, SK-OV-3, paclitaxel-equivalent concentration
Method: MCF7, SKOV-3 and MES-SA/Dx5 cells were purchased from American Type Culture Collection (ATCC, Manassas, Va., USA). Media, Dulbecco's phosphate buffered saline (DPBS), and 0.25% trypsin/EDTA were purchased from Invitrogen (Carlsbad, Calif., USA). MCF7 cells were cultured in Eagle's Minimum Essential Medium (EMEM) supplemented with 10% fetal bovine serum (FBS) and 0.01 mg/ml bovine insulin. SKOV-3 and MES-SA/Dx5 cells were cultured using McCoy's 5A modified media supplemented with 10% FBS. All experiments were performed in the aforementioned cell-specific media in a 5% CO2 incubator at 37° C.
as §2, with “Briefly, cells were seeded on 96-well plates for 24 hours before the assay at a density of 1.5×10^4 cells/well. Following” for “Following”, “Following careful aspiration of MTT solution and media after MTT incubation, 200 μL of MTT solubilization solution was added to each well and thoroughly mixed.” left out, “All conditions were done in sextuplicate in two independent experiments for each cell line.” left out

MES-SA/Dx5 cells [2] = assay: Fluorescent TUNEL assay (apoptosis) in MES-SA/Dx5 cells; type: cell-based, human; conditions: MES-SA/Dx5, 48 hours, 100 nM paclitaxel or DNA strand
Method: MCF7 and MES-SA/Dx5 cells were seeded on 0.17 mm thick coverslips in 12-well plates at a density of 2×10^5 cells/well for 24 hours prior to fluorescent TUNEL assay. Cells were treated with nothing, DNA-AuNPs at a DNA strand concentration of 100 nM (negative controls), 100 nM of free paclitaxel and compound 1 (positive controls), PTX-DNA-AuNPs at the equivalent paclitaxel concentrations of 50 nM and 100 nM (samples), respectively, for 48 hours. Live cells were rinsed and stained in accordance with instructions and materials for adherent cultured cells provided by Chemicon International ApopTag Plus Fluorescein In situ Apoptosis Detection Kit S7111 (Temecula, Calif.). ApopTag utilizes the terminal deoxynucleotidyl transferase (TdT) enzyme to amplify the fluorescein-conjugated anti-digoxigenin antibody, a secondary antibody towards digoxigenin-labeled nucleotide-labeled 30-OH termini on DNA fragments. Images were acquired on a Zeiss LSM 510 inverted microscope (computer controlled using Zeiss Zen software).
MCF7 or MES-SA/Dx5 cells were incubated with drug-free DNA-AuNPs, free paclitaxel, compound 1 and PTX-DNA@AuNPs, respectively, at varying concentrations for 48 hours.

MES-SA/Dx5 cells [3] = assay: MTT assay (cytotoxicity) in paclitaxel-resistant MES-SA/Dx5 cells; type: cell-based, human
Method: as §1, §2

[4] = Dynamic light scattering (DLS) hydrodynamic size and dispersion in PBS; type: physicochemical; conditions: 25 μM paclitaxel in PBS, DLS and TEM
Method: PTX-DNA-AuNPs or DNA-AuNPs were resuspended in 200 uL PBS buffer with oligonucleotide strands of an equivalent concentration of 25 μM. Hydrodynamic size measurements were conducted using the Zetasizer Nano ZS (Malvern, Worcestershire, U.K.). The size measurements were performed at 25° C. at a 173° scattering angle in disposable micro cuvettes (minimum volume 40 μL, Malvern, Worcestershire, U.K.). The mean hydrodynamic diameter was determined by cumulative analysis. Transmission Electron Microscopy (TEM) was performed using a 200 kV Hitachi H-8100 TEM (EPIC, Northwestern University). Diluted PTX-DNA-AuNPs in deionized water were pipetted onto a commercial carbon TEM grid (Ted Pella Inc., Redding, Calif.). Upon air drying for 2 hours, samples were then observed within a Hitachi H-8100 TEM.

SMILES: CC(=O)O[C@H]1C(=O)[C@@]2(C)[C@H]([C@H](OC(=O)c3ccccc3)[C@]3(O)C[C@H](OC(=O)[C@H](O)[C@@H](NC(=O)c4ccccc4)c4ccccc4)C(C)=C1C3(C)C)[C@]1(OC(C)=O)CO[C@@H]1C[C@@H]2O [paclitaxel]
- IC50 (MCF7 cells; MCF7, 12 h incubation, paclitaxel-equivalent concentration, read-out: IC50 (nM Paclitaxel)): > 1000 nM
- IC50 (MCF7 cells; MCF7, 12 hour incubation, read-out: IC50 value): > 1000 nM
- IC50 (MCF7 cells; MCF7, 48 h incubation, paclitaxel-equivalent concentration, read-out: IC50 (nM Paclitaxel)): 193 nM
- IC50 ([1]; SKOV-3, 12 h incubation): 176 nM
- IC50 ([1]; SKOV-3, 48 h incubation): 28.9 nM
- TUNEL staining (apoptosis) (MES-SA/Dx5 cells [2]): lower fraction of TUNEL-positive signals
- viability at 0.2 µM (MES-SA/Dx5 cells [3]; Homo sapiens, 48 h, MES-SA/Dx5, 2 days incubation, 200 nM drug concentration, % of control, read-out: cell viability): 76%
- IC50 (MES-SA/Dx5 cells [3]; Homo sapiens, MES-SA/Dx5, 12 h incubation, paclitaxel-equivalent concentration, read-out: IC50 (nM Paclitaxel)): > 1000 nM
- IC50 (MES-SA/Dx5 cells [3]; Homo sapiens, MES-SA/Dx5, 48 h incubation, paclitaxel-equivalent concentration, read-out: IC50 (nM Paclitaxel)): > 1000 nM
- IC50 (MES-SA/Dx5 cells [3]; Homo sapiens, resistant MES-SA/Dx5 cells, 12 hours and 48 hours, read-out: IC50 values): > 1000 nM
- therapeutic activity (MES-SA/Dx5 cells [3]; paclitaxel-resistant MES-SA/Dx5, 200 nM, 2 days): did not display any significant therapeutic activity
- dispersion in PBS [4]: severe aggregation
